As a reminder, the inhibition is the percentage by which the read-out fell short of the control.

The subject of data set [1] is MV4-11. The data set can be described thus: Cell cycle arrest in human MV4-11 cells assessed as accumulation of cells at G2/M-phase at 1.25 uM measured after 24 hrs by propidium iodide staining based flow cytometry (reference value: 15.23%). Type of data set: functional.
For data set [2], the target named is High affinity nerve growth factor receptor (Homo sapiens) (UniProt P04629). The conditions noted are these: Sf21, dose 200.0 nM.
Sequence of High affinity nerve growth factor receptor (Homo sapiens) (P04629 33-796 limits assumed): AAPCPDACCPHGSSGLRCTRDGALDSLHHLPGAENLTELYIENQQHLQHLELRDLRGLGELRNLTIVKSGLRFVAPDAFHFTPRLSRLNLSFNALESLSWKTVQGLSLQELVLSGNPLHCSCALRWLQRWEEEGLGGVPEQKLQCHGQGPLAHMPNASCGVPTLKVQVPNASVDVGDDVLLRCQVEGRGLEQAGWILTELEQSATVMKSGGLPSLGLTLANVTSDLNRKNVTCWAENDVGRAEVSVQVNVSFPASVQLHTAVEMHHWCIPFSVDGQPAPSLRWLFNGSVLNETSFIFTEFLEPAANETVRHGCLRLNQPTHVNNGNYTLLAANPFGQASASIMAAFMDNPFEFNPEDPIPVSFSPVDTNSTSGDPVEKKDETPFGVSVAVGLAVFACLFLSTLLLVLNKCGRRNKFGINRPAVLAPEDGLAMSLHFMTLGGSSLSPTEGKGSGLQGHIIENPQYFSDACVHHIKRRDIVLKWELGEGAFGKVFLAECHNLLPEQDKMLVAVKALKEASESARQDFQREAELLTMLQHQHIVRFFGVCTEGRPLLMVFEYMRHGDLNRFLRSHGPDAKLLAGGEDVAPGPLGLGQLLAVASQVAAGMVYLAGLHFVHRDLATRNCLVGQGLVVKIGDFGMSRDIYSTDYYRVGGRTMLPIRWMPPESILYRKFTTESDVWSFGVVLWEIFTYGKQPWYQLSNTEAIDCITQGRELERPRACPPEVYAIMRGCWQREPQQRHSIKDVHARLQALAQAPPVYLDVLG
Data set [3] concerns MV4-11. The data set can be described thus: Cell cycle arrest in human MV4-11 cells assessed as accumulation of cells at G1-phase at 5 uM measured after 24 hrs by propidium iodide staining based flow cytometry (reference value: 61.42%). Type of data set: functional. Background: In flow cytometry, cells or beads pass a laser one at a time.
For data set [4], the system named is MV4-11. The data set can be described thus: Cell cycle arrest in human MV4-11 cells assessed as accumulation of cells at G1-phase at 0.04 uM measured after 24 hrs by propidium iodide staining based flow cytometry (reference value: 61.42%). Type of data set: functional.
A short description of data set [5]: Toxicity in human COLO 205 cells xenografted CD1 nu/nu mouse assessed as body weight loss at 50 mg/kg, po administered daily via gavage for 56 days and measured twice per week during compound dosing. Type of data set: organism-based. To be noted: in vivo, 1344 h, time 56 day.
Data set [6] in a line: Plasma concentration at steady state in human COLO 205 cells xenografted po dosed CD1 nu/nu mouse. Type of data set: ADME, organism-based. To be noted: in vivo. In general terms: Xenograft models place foreign cells or tissue in a host animal.
The next data set deals with MDA-MB-231. Briefly: Cell cycle arrest in human MDA-MB-231 cells assessed as accumulation of cells at G1-phase at 2.5 uM measured after 24 hrs by propidium iodide staining based flow cytometry (reference value: 50.27%). Type of data set: functional.
The species named for data set [7] is Mus musculus. The conditions noted are these: CD1, dose 50.0 mg/kg, route po, time 22.0 day.
Data set [8] is described as follows: Toxicity in human Calu-6 cells xenografted CD1 nu/nu mouse assessed as body weight loss at 50 mg/kg, po administered once daily via gavage for 12 days followed by gemcitabine addition for 4 days and measured twice per week during compound dosing. Type of data set: organism-based. To be noted: in vivo, 384 h, time 16 day.
The species named for data set [9] is Mus musculus. To be noted: CD1, dose 50.0 mg/kg, route po, time 22.0 day. The source holds these as a separate data set.
The test system of data set [10] is MV4-11. Briefly: Cell cycle arrest in human MV4-11 cells assessed as accumulation of cells at S-phase at 5 uM measured after 24 hrs by propidium iodide staining based flow cytometry (reference value: 23.35%). Type of data set: functional.
Data set [11] relates to MV4-11. Briefly: Cell cycle arrest in human MV4-11 cells assessed as accumulation of cells at S-phase at 0.16 uM measured after 24 hrs by propidium iodide staining based flow cytometry (reference value: 23.35%). Type of data set: functional.

Active and inactive are the calls of the source. The rule behind the calls is not given here.

In the case of `CCN1CCN(Cc2ccc(Nc3ncc(F)c(-c4cc(F)c5nc(C)n(C(C)C)c5c4)n3)nc2)CC1` [ABEMACICLIB], the Activity in the data set with MV4-11 [1] is 1.84%; in the data set on MV4-11 [3], 95.56%; in the data set with MV4-11 [4] it was 77.47%; in [5], “Non-Toxic”; with MDA-MB-231, 86.04%; in [8], “Non-Toxic”. Further, the Activity in the data set on MV4-11 [10] amounted to 3.9%; with MV4-11 [11], 4.59%. Moreover, in data set [2], the inhibition was above 90%. In addition, in data set [6], the Cpss is ~ 400 nM. The inhibition result in the data set filed under Mus musculus [7] and in the data set filed under Mus musculus [9] was “inactive” in each case.
